In paper PMC10897196, “Structure–activity characteristics of phenylalanine analogs selectively transported by L-type amino acid transporter 1 (LAT1)” (Scientific Reports, 2024):
Values joined by “and” are separate entries in the source; they are usually repeats but may differ in a detail not shown here. Identical values can stand only once.

Columns and labels:
[1] = molecular target: T1, human LAT1 (Homo sapiens, UniProt Q01650); experiment: Inhibition of L-[14C]leucine uptake in HEK293-hLAT1 cells; type: cell-based; details: for Inhibition of LAT1-mediated L-[14C]leucine uptake (in words, rank order): 1 μM L-[14C]leucine, 1 min, compounds at 10, 30, 100 μM
T1 construct: expressed in transfected cells
T1 sequence (Q01650 whole entry, one chain of several): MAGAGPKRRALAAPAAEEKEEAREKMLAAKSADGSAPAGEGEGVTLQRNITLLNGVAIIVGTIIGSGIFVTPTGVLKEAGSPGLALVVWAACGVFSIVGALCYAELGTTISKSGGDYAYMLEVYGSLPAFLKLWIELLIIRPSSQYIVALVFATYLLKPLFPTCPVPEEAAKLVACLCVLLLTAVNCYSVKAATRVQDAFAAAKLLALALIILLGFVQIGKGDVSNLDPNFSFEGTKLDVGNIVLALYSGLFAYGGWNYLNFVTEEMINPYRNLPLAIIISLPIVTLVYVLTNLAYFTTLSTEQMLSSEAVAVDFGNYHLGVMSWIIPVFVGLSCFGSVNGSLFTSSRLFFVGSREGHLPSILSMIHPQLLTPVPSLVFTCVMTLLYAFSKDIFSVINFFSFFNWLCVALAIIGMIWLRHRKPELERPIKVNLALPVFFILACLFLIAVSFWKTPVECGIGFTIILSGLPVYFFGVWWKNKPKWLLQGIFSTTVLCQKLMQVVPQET
Source text: (§1) In this study, we used the HEK293 cells stably expressing human LAT1 or human LAT2, which form a heterodimeric complex with endogenous 4F2hc (CD98hc), required for plasma membrane localization. We first explored the impact of halogen group positioning in the benzene ring of Phe (Fig. 1) on its interaction with LAT1 and LAT2. […] We conducted inhibition experiments to measure the uptake of L-[^14C]leucine by LAT1 and L-[^14C]alanine by LAT2 in the presence or absence of Phe derivatives with an iodo group at position 2, 3, or 4 in the benzene ring.
(§2) The inhibition experiments were performed as described previously. HEK293-hLAT1 (1.5 × 10^5 cells/well) or HEK293-hLAT2 (2 × 10^5 cells/well) cells were plated onto poly-D-lysine-coated 24-well plates (Corning, New York, USA). Following a 2-day culture period, the uptake of 1 μM L-[^14C]leucine or L-[^14C]alanine was measured for 1 min in the absence or presence of non-radiolabeled test compounds at concentrations of 10, 30, and 100 μM. Radioactivity was quantified using a β-scintillation counter (LSC-3100; Aloka, Tokyo, Japan), and protein concentrations were determined with a Micro BCA Protein Assay Kit (Thermo Fisher Scientific, Rockford, IL). To calculate Ki values, the concentration-dependent uptake of L-[^14C]leucine or L-[^14C]alanine was analyzed in the presence and absence of test compounds[49]. The data were plotted against substrate concentration and fitted to Michaelis–Menten kinetics. Ki values were derived using nonlinear regression analysis with the enzyme kinetics inhibition module in GraphPad Prism software (Version 10.0.2; GraphPad Software Inc., San Diego, CA, USA).

[2] = molecular target: T2, human LAT2 (Homo sapiens, UniProt Q9UHI5); experiment: Inhibition of L-[14C]alanine uptake in HEK293-hLAT2 cells; type: cell-based; details: for Inhibition of LAT2-mediated L-[14C]alanine uptake (in words, rank order): 1 μM L-[14C]alanine, 1 min, compounds at 10, 30, 100 μM
T2 construct: expressed in transfected cells
T2 sequence (Q9UHI5 1-535): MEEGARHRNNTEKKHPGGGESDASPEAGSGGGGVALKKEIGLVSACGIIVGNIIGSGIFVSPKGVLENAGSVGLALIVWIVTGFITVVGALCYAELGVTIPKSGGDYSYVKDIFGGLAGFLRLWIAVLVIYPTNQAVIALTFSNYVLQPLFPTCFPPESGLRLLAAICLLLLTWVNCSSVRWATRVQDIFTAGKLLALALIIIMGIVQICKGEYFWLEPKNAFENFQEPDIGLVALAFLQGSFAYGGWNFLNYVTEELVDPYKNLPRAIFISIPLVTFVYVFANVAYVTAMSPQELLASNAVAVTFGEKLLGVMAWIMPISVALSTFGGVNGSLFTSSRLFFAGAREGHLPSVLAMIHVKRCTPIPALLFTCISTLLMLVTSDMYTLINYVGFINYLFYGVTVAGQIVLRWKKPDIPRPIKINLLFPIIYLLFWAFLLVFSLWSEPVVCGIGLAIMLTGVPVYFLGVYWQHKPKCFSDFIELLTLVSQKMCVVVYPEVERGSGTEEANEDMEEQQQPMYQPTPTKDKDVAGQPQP
T2 sequence (P08195 1-529 partner): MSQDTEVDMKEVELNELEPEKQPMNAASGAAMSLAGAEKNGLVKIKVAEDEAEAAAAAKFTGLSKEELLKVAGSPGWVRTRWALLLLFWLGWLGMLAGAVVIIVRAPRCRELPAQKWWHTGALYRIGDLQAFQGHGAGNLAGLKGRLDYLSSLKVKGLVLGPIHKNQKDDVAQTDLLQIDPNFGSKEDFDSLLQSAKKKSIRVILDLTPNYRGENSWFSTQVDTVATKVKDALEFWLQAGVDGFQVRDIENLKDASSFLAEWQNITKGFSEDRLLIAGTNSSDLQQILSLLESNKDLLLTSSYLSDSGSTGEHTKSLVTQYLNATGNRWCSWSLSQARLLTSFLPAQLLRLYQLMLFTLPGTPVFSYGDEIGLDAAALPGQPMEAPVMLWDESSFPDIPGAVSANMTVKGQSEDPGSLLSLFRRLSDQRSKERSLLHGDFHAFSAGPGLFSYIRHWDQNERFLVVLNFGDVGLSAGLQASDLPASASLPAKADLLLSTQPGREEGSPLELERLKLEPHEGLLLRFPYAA
Source text: as §1, §2

[3] = molecular target: T1, human LAT1; experiment: Efflux of pre-loaded L-[14C]leucine from HEK293-hLAT1 cells induced by extracellular compounds; type: cell-based; details: 1 min
Method: (§3) We evaluated the efflux of pre-loaded L-[^14C]leucine from LAT1 and pre-loaded L-[^14C]alanine from LAT2 induced by extracellularly applied compounds.
(§4) Efflux experiments were performed as described previously. Cells cultured 48 h were pre-loaded with 5 μM L-[^14C]leucine or L-[^14C]alanine for 10 min at 37 °C. The cells were then washed, and the efflux was induced by incubating cells for 1 min in either the absence or presence of non-radiolabeled test compounds at indicated concentrations. The efflux time of 1 min fell within the linear range of time-dependent substrate efflux mediated by LAT1 and LAT2 (Supplementary Fig. S2). Following incubation, the medium was collected and radioactivity was measured in both the medium and the cells. Efflux was quantified as the percentage of radioactivity released into the medium, calculated using the formula: radioactivity of medium/(radioactivity of medium + radioactivity of cells) × 100%.
(§5) The kinetic parameters for the efflux of L-[^14C]leucine or L-[^14C]alanine induced by various concentrations of extracellularly-applied test compounds were analyzed. The baseline efflux values—those obtained in the absence of test compounds—were subtracted from the values measured in the presence of the compounds. The resultant data were fitted to Michaelis–Menten kinetics to determine the Km and Vmax by nonlinear regression analysis using “enzyme kinetics-velocity as a function of substrate” module within GraphPad Prism software.

[4] = molecular target: T2, human LAT2; experiment: Efflux of pre-loaded L-[14C]alanine from HEK293-hLAT2 cells induced by extracellular compounds; type: cell-based; details: 1 min
Method: as §3, §4, §5

[5] = design: method as in PMID 11901210; details: correlated with LAT1 Ki; cited from earlier work
[6] = LAT1, L-[14C]leucine efflux, mean ± S.E.M., n = 3

Inhibition of LAT1-mediated L-[14C]leucine uptake (in words, rank order) [1] | Inhibition of LAT2-mediated L-[14C]alanine uptake (in words, rank order) [2] | SMILES | Carbonyl oxygen charge [5] | also measured
3-F-Phe < 3-Cl-Phe | 3-F-Phe < 3-Cl-Phe | N[C@@H](Cc1cccc(Cl)c1)C(=O)O [3-Cl-Phe] | – | –
comparable to that of Phe | Phe < 4-I-Phe | N[C@@H](Cc1ccc(I)cc1)C(=O)O [4-I-Phe] | – | –
Phe < 3-F-Phe | Phe < 3-F-Phe | N[C@@H](Cc1cccc(F)c1)C(=O)O [3-F-Phe] | – | –

Continued, molecule first:

SMILES | Inhibition of LAT1-mediated L-[14C]leucine uptake (in words, rank order) [1] | Inhibition of LAT2-mediated L-[14C]alanine uptake (in words, rank order) [2] | Carbonyl oxygen charge [5] | also measured
N[C@@H](Cc1ccccc1I)C(=O)O [2-I-Phe, 2-iodo-L-phenylalanine] | markedly inhibited and 2-Br-Phe < 2-I-Phe and inhibit | 2-I-Phe = Phe | – | Ki ([1]; L-[14C]leucine uptake, HEK293-hLAT1, mean ± S.E.M., n = 3–4, read-out: Ki (μM) LAT1): 9.56 ± 1.67 µM; Ki ratio (LAT2/LAT1) ([1]; LAT1 selectivity, LAT2 Ki over LAT1 Ki): 9.16; Ki ([2]; L-[14C]alanine uptake, HEK293-hLAT2, mean ± S.E.M., n = 3–4, read-out: Ki (μM) LAT2): 87.6 ± 11.9 µM; Km [3, 6]: 2.79 ± 0.76 µM; Vmax of efflux (% radioactivity/min) [3, 6]: 7.62 ± 0.30 % radioactivity/min; LAT1-mediated L-[14C]leucine efflux induced (in words) ([3]; compounds at 10, 30, 100 μM): transported by LAT1 as substrates; Vmax of efflux (% radioactivity/min) ([4]; LAT2, L-[14C]alanine efflux, mean ± S.E.M., n = 3): 39.65 ± 0.44 % radioactivity/min; LAT2-mediated L-[14C]alanine efflux induced (in words) ([4]; compounds at 10, 30, 100 μM): comparable to that of Phe
C[C@](N)(Cc1ccc(O)c(O)c1)C(=O)O [α-methyl-DOPA] | – | – | −0.5558 | –
N[C@@H](Cc1ccccc1F)C(=O)O [2-F-Phe] | 2-F-Phe = Phe | – | – | –
N[C@@H](Cc1ccc(O)cc1)C(=O)O [Tyr] | – | – | −0.5635 | –
C[C@](N)(Cc1ccc(O)cc1)C(=O)O [α-methyl-Tyr] | – | – | −0.5579 | –
